Reference: PMC10066365, “Nemacol is a small molecule inhibitor of C. elegans vesicular acetylcholine transporter with anthelmintic potential” (Nature Communications, 2023)
Values joined by “and” are separate entries in the source; they are usually repeats but may differ in a detail not shown here. Identical values can stand only once. Like-named read-outs stand apart in the source and are kept apart here.

Legend:
C. elegans = C. elegans motor phenotype scoring on solid media (Punc/jerky-unc, coiled, paralyzed), wild-type young adults; format: in vivo, Caenorhabditis elegans; conditions: for any phene, mean % fraction of young adults exhibiting any phenotype (coiled, jerky-Unc or paralyzed) / atypical locomotion (number of animals) / coiled (number of animals) / no phene (number of animals) / paralyzed (number of animals): one hour; for any phene, mean % fraction of young adults exhibiting any phenotype (coiled, jerky-Unc or paralyzed): mean of three biological replicates; for atypical locomotion (number of animals) / coiled (number of animals) / no phene (number of animals) / paralyzed (number of animals): young adults, 20 animals per trial, single replicate counts; for EC50: Caenorhabditis elegans, read-out: C. elegans - motor disruption EC50
[1] = system: Dirofilaria immitis microfilariae; assay: Dirofilaria immitis microfilariae immobility assay (DiroImager, 72 h); conditions: Dirofilaria immitis microfilariae
Method: We conducted experiments with the Missouri isolate of Dirofilaria immitis in two labs. In the first set of experiments, shown as part of Fig. 3c, D. immitis microfilariae and larval stage 3 (L3) worms were assayed in the laboratories of Bayer Animal Health GmbH (Monheim, Germany). For microfilariae immobility assays, approximately 250 freshly purified microfilariae were cultured in single wells of a 96-well microtiter plate containing supplemented RPMI 1640 medium[68],[69]. […] Microfilariae exposed to medium substituted with 1% DMSO were used as negative controls. Motility of microfilariae was evaluated after 72 h of drug exposure using an image-based approach—DiroImager, developed by Bayer Technology Services. As described in detail in refs. [68],[69], the DiroImager is an automated high-throughput platform that allows for high-resolution optical imaging of an entire 96-well microtiter plate.

[2] = system: Dirofilaria immitis L3/L4; assay: Dirofilaria immitis L3/L4 motility assay (DiroImager, 72 h); conditions: Dirofilaria immitis L4
Pristionchus pacificus = Pristionchus pacificus motor disruption dose-response on solid media, 1 h; conditions: for mean % any phene (coiled, jerky-Unc or paralyzed): Pristionchus pacificus young adults, mean of three biological replicates; for EC50: Pristionchus pacificus, 1 h, read-out: P. pacificus motor disruption EC50
[3] = conc 3.75, observed at one hour
[4] = any motor phenotype after 1 h on solid media, ± 95% CI

| SMILES | any phene, mean % fraction of young adults exhibiting any phenotype (coiled, jerky-Unc or paralyzed) (C. elegans; 3.75uM) [%] | atypical locomotion (number of animals) (C. elegans; 3.75uM) | coiled (number of animals) (C. elegans; 3.75uM) | no phene (number of animals) (C. elegans; 3.75uM) | paralyzed (number of animals) (C. elegans; 3.75uM) | any phene, mean % fraction of young adults exhibiting any phenotype (coiled, jerky-Unc or paralyzed) (C. elegans; 15uM) [%] | atypical locomotion (number of animals) (C. elegans; 15uM) | coiled (number of animals) (C. elegans; 15uM) | no phene (number of animals) (C. elegans; 15uM) | paralyzed (number of animals) (C. elegans; 15uM) | any phene, mean % fraction of young adults exhibiting any phenotype (coiled, jerky-Unc or paralyzed) (C. elegans; 60uM) [%] | atypical locomotion (number of animals) (C. elegans; 60uM) | coiled (number of animals) (C. elegans; 60uM) | no phene (number of animals) (C. elegans; 60uM) | paralyzed (number of animals) (C. elegans; 60uM) | % effect (motility), DIROIM MF ([1]; 0.016 µM) [%] | % effect (motility), DIROIM MF ([1]; 0.08 µM) [%] | % effect (motility), DIROIM MF ([1]; 0.4 µM) [%] | % effect (motility), DIROIM MF ([1]; 2 µM) [%] | % effect (motility), DIROIM MF ([1]; 10 µM) [%] | other results |
| --- | --- | --- | --- | --- | --- | --- | --- | --- | --- | --- | --- | --- | --- | --- | --- | --- | --- | --- | --- | --- | --- |
| O=[N+]([O-])c1ccc(N2CCN(Cc3ccccc3)CC2)cc1 [Nemacol-6] | 0 | 0 | 0 | 20 | 0 | 7.5 | 1 and 0 and 2 and 5 | 0 | 19 and 20 and 18 and 15 | 0 | 44.1667 | 5 and 3 and 4 and 19 and 13 | 1 and 0 and 3 | 14 and 17 and 12 and 16 and 1 and 7 | 0 | 0 | 0 | 0 | 0 | 0 | EC50 (C. elegans; 1 h): > 60 µM; % effect (motility), DIROIM L4 ([2]; 2 µM): 5%; % effect (motility), DIROIM L4 ([2]; 10 µM): 6%; % effect (motility), DIROIM L4 ([2]; 50 µM): 20%; mean % any phene (coiled, jerky-Unc or paralyzed) (Pristionchus pacificus; [3]): 0%; mean % any phene (coiled, jerky-Unc or paralyzed) (Pristionchus pacificus; conc 15, observed at one hour): 1.667%; mean % any phene (coiled, jerky-Unc or paralyzed) (Pristionchus pacificus; conc 60, observed at one hour): 23.3333%; EC50 (Pristionchus pacificus): > 60 µM |
| CN1CCN(c2ccc([N+](=O)[O-])cc2)CC1 [Nemacol-7] | 0 | 0 | 0 | 20 | 0 | 3.333 | 0 and 1 and 2 | 0 | 20 and 19 and 18 | 0 | 14.1667 | 1 and 2 and 0 and 4 and 8 | 0 | 19 and 18 and 20 and 16 and 12 | 0 | 0 | 0 | 0 | 0 | 0 | EC50 (C. elegans; 1 h): > 60 µM; % effect (motility), DIROIM L4 ([2]; 2 µM): 5%; % effect (motility), DIROIM L4 ([2]; 10 µM): 5%; % effect (motility), DIROIM L4 ([2]; 50 µM): 10%; mean % any phene (coiled, jerky-Unc or paralyzed) (Pristionchus pacificus; [3]): 1.667%; mean % any phene (coiled, jerky-Unc or paralyzed) (Pristionchus pacificus; conc 15, observed at one hour): 5%; mean % any phene (coiled, jerky-Unc or paralyzed) (Pristionchus pacificus; conc 60, observed at one hour): 41.6667%; EC50 (Pristionchus pacificus): > 60 µM |
| CCN1CCN(c2ccc([N+](=O)[O-])cc2)CC1 [Nemacol-8] | 0 | 0 | 0 | 20 | 0 | 0 | 0 | 0 | 20 | 0 | 28.5965 | 4 and 3 and 1 and 5 and 8 | 0 and 2 and 1 | 16 and 17 and 13 and 15 and 11 | 0 and 3 and 2 and 1 | 0 | 0 | 0 | 0 | 0 | EC50 (C. elegans; 1 h): > 60 µM; % effect (motility), DIROIM L4 ([2]; 2 µM): 0%; % effect (motility), DIROIM L4 ([2]; 10 µM): 5%; % effect (motility), DIROIM L4 ([2]; 50 µM): 5%; mean % any phene (coiled, jerky-Unc or paralyzed) (Pristionchus pacificus; [3]): 0%; mean % any phene (coiled, jerky-Unc or paralyzed) (Pristionchus pacificus; conc 15, observed at one hour): 48.3333%; mean % any phene (coiled, jerky-Unc or paralyzed) (Pristionchus pacificus; conc 60, observed at one hour): 81.6667%; EC50 (Pristionchus pacificus): 17.8 ± 3.7 µM |
| Fc1ccc(N2CCN(CC3CCCCC3)CC2)cc1 [Nemacol-9] | 21.6667 | 0 and 14 and 12 | 0 | 20 and 6 and 8 | 0 | 44.1667 | 5 and 3 and 1 and 2 and 16 and 11 | 2 and 0 and 4 and 7 | 13 and 17 and 19 and 18 and 0 | 0 and 2 | 95 | 11 and 13 and 12 and 14 and 3 and 1 | 6 and 5 and 4 and 8 and 13 | 0 and 4 and 2 | 3 and 2 and 0 and 9 and 6 | 0 | 0 | 0 | 0 | 0 | EC50 (C. elegans; [4]): 14.4 ± 13.3 µM; % effect (motility), DIROIM L4 ([2]; 2 µM): 5%; % effect (motility), DIROIM L4 ([2]; 10 µM): 5%; % effect (motility), DIROIM L4 ([2]; 50 µM): 10%; mean % any phene (coiled, jerky-Unc or paralyzed) (Pristionchus pacificus; [3]): 1.667%; mean % any phene (coiled, jerky-Unc or paralyzed) (Pristionchus pacificus; conc 15, observed at one hour): 10%; mean % any phene (coiled, jerky-Unc or paralyzed) (Pristionchus pacificus; conc 60, observed at one hour): 100%; EC50 (Pristionchus pacificus): 20 µM |
| Clc1ccc(N2CCN(CC3CCCCC3)CC2)cc1 [Nemacol-10] | 0 | 0 | 0 | 20 | 0 | 27.5 | 5 and 4 and 3 and 1 and 2 | 1 and 2 and 0 and 3 | 14 and 13 and 18 | 0 and 1 and 3 | 55.6944 | 8 and 14 and 12 and 11 and 6 and 7 | 1 and 0 and 2 | 11 and 4 and 7 and 8 and 12 and 13 | 4 and 2 and 0 | 0 | 0 | 0 | 0 | 0 | EC50 (C. elegans; [4]): 45.7 ± 15.7 µM; % effect (motility), DIROIM L4 ([2]; 2 µM): 0%; % effect (motility), DIROIM L4 ([2]; 10 µM): 0%; % effect (motility), DIROIM L4 ([2]; 50 µM): 25%; mean % any phene (coiled, jerky-Unc or paralyzed) (Pristionchus pacificus; [3]): 0.8333%; mean % any phene (coiled, jerky-Unc or paralyzed) (Pristionchus pacificus; conc 15, observed at one hour): 3.333%; mean % any phene (coiled, jerky-Unc or paralyzed) (Pristionchus pacificus; conc 60, observed at one hour): 6.667%; EC50 (Pristionchus pacificus): > 60 µM |
| CCN1CCN(CC2CCCCC2)CC1 [Nemacol-11] | 3.333 | 0 and 3 and 1 | 0 | 20 and 17 and 19 | 0 | 6.667 | 0 and 5 and 3 | 0 | 20 and 15 and 17 | 0 | 19.1667 | 1 and 0 and 13 and 9 | 0 | 19 and 20 and 7 and 11 | 0 | 0 | 0 | 0 | 0 | 0 | EC50 (C. elegans; [4]): > 60 µM; % effect (motility), DIROIM L4 ([2]; 2 µM): 10%; % effect (motility), DIROIM L4 ([2]; 10 µM): 5%; % effect (motility), DIROIM L4 ([2]; 50 µM): 0%; mean % any phene (coiled, jerky-Unc or paralyzed) (Pristionchus pacificus; [3]): 0%; mean % any phene (coiled, jerky-Unc or paralyzed) (Pristionchus pacificus; conc 15, observed at one hour): 0%; mean % any phene (coiled, jerky-Unc or paralyzed) (Pristionchus pacificus; conc 60, observed at one hour): 3.333%; EC50 (Pristionchus pacificus): > 60 µM |
